According to the NIST ThermoML archive (doi:10.1016/j.jct.2016.03.030):
Numbers after ± are expanded uncertainties.

Experiment: xn = mol fraction of the nth substance listed
Settings: 100 kPa, Liquid; for viscosity: Falling or rolling sphere viscometry; for mass density: Vibrating tube method

CCCCC[N+]1(C)CCCCC1.[Br-] [1-methyl-1-pentylpiperidinium bromide] + O
Settings | mass density [kg/m3] | viscosity [mPa·s]
298.15 K, x1 = 0.003 | 1003.5 ± 1.1 | –
298.15 K, x1 = 0.0072 | 1012 ± 1.1 | –
298.15 K, x1 = 0.0119 | 1021.1 ± 1.1 | –
298.15 K, x1 = 0.0427 | 1070.7 ± 1 | 2.961 ± 0.3
298.15 K, x1 = 0.0615 | 1091.4 ± 1 | 4.385 ± 0.44
298.15 K, x1 = 0.0839 | 1110.2 ± 1 | 6.713 ± 0.67
298.15 K, x1 = 0.1192 | 1131.1 ± 1 | 12.34 ± 1.2
298.15 K, x1 = 0.1491 | 1144 ± 1 | 17.14 ± 1.7
298.15 K, x1 = 0.2004 | 1159.3 ± 1.1 | 27.79 ± 2.8
298.15 K, x1 = 0.2206 | 1163.7 ± 1.1 | 41.58 ± 4.2
298.15 K, x1 = 0.2393 | 1167.7 ± 1.1 | 58.11 ± 5.8
298.15 K, x1 = 0.2655 | 1172.3 ± 1.2 | 95.22 ± 9.7
298.15 K, x1 = 0.2745 | 1173.8 ± 1.2 | 107.8 ± 11
303.15 K, x1 = 0.003 | 1002 ± 1.1 | –
303.15 K, x1 = 0.0072 | 1010.4 ± 1.1 | –
303.15 K, x1 = 0.0119 | 1019.3 ± 1.1 | –
303.15 K, x1 = 0.0427 | 1067.8 ± 1 | 2.439 ± 0.24
303.15 K, x1 = 0.0615 | 1088.2 ± 1 | 3.663 ± 0.37
303.15 K, x1 = 0.0839 | 1106.7 ± 1 | 5.513 ± 0.55
303.15 K, x1 = 0.1192 | 1127.5 ± 1 | 9.841 ± 0.99
303.15 K, x1 = 0.1491 | 1140.4 ± 1 | 12.93 ± 1.3
303.15 K, x1 = 0.2004 | 1153.7 ± 1.1 | 21.75 ± 2.2
303.15 K, x1 = 0.2206 | 1160.2 ± 1.1 | 29.41 ± 3
303.15 K, x1 = 0.2393 | 1164.2 ± 1.1 | 44.51 ± 4.5
303.15 K, x1 = 0.2655 | 1168.8 ± 1.2 | 68.59 ± 6.9
303.15 K, x1 = 0.2745 | 1170.3 ± 1.2 | 77.28 ± 7.8
308.15 K, x1 = 0.003 | 1000.2 ± 1.1 | –
308.15 K, x1 = 0.0072 | 1008.6 ± 1.1 | –
308.15 K, x1 = 0.0119 | 1017.3 ± 1.1 | –
308.15 K, x1 = 0.0427 | 1064.8 ± 1 | 1.881 ± 0.19
308.15 K, x1 = 0.0615 | 1084.9 ± 1 | 3.087 ± 0.31
308.15 K, x1 = 0.0839 | 1103.2 ± 1 | 4.576 ± 0.46
308.15 K, x1 = 0.1192 | 1123.9 ± 1 | 8.001 ± 0.8
308.15 K, x1 = 0.1491 | 1136.8 ± 1 | 9.983 ± 1
308.15 K, x1 = 0.2004 | 1152.1 ± 1.1 | 16.35 ± 1.6
308.15 K, x1 = 0.2206 | 1156.7 ± 1.1 | 23.02 ± 2.3
308.15 K, x1 = 0.2393 | 1160.7 ± 1.1 | 33.69 ± 3.4
308.15 K, x1 = 0.2655 | 1165.3 ± 1.2 | 50.52 ± 5.1
308.15 K, x1 = 0.2745 | 1166.8 ± 1.2 | 56.51 ± 5.7
313.15 K, x1 = 0.003 | 998.2 ± 1.1 | –
313.15 K, x1 = 0.0072 | 1006.5 ± 1.1 | –
313.15 K, x1 = 0.0119 | 1015.1 ± 1.1 | –
313.15 K, x1 = 0.0427 | 1061.8 ± 1 | 1.639 ± 0.16
313.15 K, x1 = 0.0615 | 1081.5 ± 1 | 2.632 ± 0.26
313.15 K, x1 = 0.0839 | 1099.7 ± 1 | 3.846 ± 0.39
313.15 K, x1 = 0.1192 | 1120.3 ± 1 | 6.581 ± 0.66
313.15 K, x1 = 0.1491 | 1133.2 ± 1 | 8.698 ± 0.87
313.15 K, x1 = 0.2004 | 1148.2 ± 1.1 | 14.09 ± 1.4
313.15 K, x1 = 0.2206 | 1153.1 ± 1.1 | 18.11 ± 1.8
313.15 K, x1 = 0.2393 | 1157.1 ± 1.1 | 25.85 ± 2.6
313.15 K, x1 = 0.2655 | 1161.8 ± 1.2 | 38.16 ± 3.8
313.15 K, x1 = 0.2745 | 1163.3 ± 1.2 | 42.34 ± 4.3
318.15 K, x1 = 0.003 | 996.1 ± 1.1 | –
318.15 K, x1 = 0.0072 | 1004.2 ± 1.1 | –
318.15 K, x1 = 0.0119 | 1012.8 ± 1.1 | –
318.15 K, x1 = 0.0427 | 1058.7 ± 1 | 1.441 ± 0.14
318.15 K, x1 = 0.0615 | 1078.1 ± 1 | 2.267 ± 0.23
318.15 K, x1 = 0.0839 | 1096.1 ± 1 | 3.269 ± 0.33
318.15 K, x1 = 0.1192 | 1116.6 ± 1 | 5.458 ± 0.55
318.15 K, x1 = 0.1491 | 1129.5 ± 1 | 7.311 ± 0.73
318.15 K, x1 = 0.2004 | 1144.5 ± 1.1 | 11.22 ± 1.1
318.15 K, x1 = 0.2206 | 1149.5 ± 1.1 | 14.1 ± 1.4
318.15 K, x1 = 0.2393 | 1153.6 ± 1.1 | 20.21 ± 2
318.15 K, x1 = 0.2655 | 1158.3 ± 1.2 | 29.44 ± 3
318.15 K, x1 = 0.2745 | 1159.8 ± 1.2 | 32.5 ± 3.3
323.15 K, x1 = 0.003 | 993.7 ± 1.1 | –
323.15 K, x1 = 0.0072 | 1001.9 ± 1.1 | –
323.15 K, x1 = 0.0119 | 1010.3 ± 1.1 | –
323.15 K, x1 = 0.0427 | 1055.5 ± 1 | 1.261 ± 0.13
323.15 K, x1 = 0.0615 | 1074.7 ± 1 | 1.945 ± 0.2
323.15 K, x1 = 0.0839 | 1092.5 ± 1 | 2.77 ± 0.28
323.15 K, x1 = 0.1192 | 1113 ± 1 | 4.499 ± 0.45
323.15 K, x1 = 0.1491 | 1125.8 ± 1 | 6.029 ± 0.6
323.15 K, x1 = 0.2004 | 1141.2 ± 1.1 | 9.723 ± 0.98
323.15 K, x1 = 0.2206 | 1145.9 ± 1.1 | 12.33 ± 1.2
323.15 K, x1 = 0.2393 | 1150.1 ± 1.1 | 15.88 ± 1.6
323.15 K, x1 = 0.2655 | 1154.8 ± 1.1 | 22.79 ± 2.3
323.15 K, x1 = 0.2745 | 1156.3 ± 1.2 | 25.06 ± 2.5
328.15 K, x1 = 0.003 | 990.9 ± 1.1 | –
328.15 K, x1 = 0.0072 | 999.4 ± 1.1 | –
328.15 K, x1 = 0.0119 | 1007.7 ± 1.1 | –
328.15 K, x1 = 0.0427 | 1052.2 ± 1 | 1.11 ± 0.11
328.15 K, x1 = 0.0615 | 1071.2 ± 1 | 1.682 ± 0.17
328.15 K, x1 = 0.0839 | 1088.9 ± 1 | 2.369 ± 0.24
328.15 K, x1 = 0.1192 | 1109.3 ± 1 | 3.749 ± 0.38
328.15 K, x1 = 0.1491 | 1122.1 ± 1 | 5.354 ± 0.54
328.15 K, x1 = 0.2004 | 1137.5 ± 1.1 | 8.195 ± 0.82
328.15 K, x1 = 0.2206 | 1142.3 ± 1.1 | 10.68 ± 1.1
328.15 K, x1 = 0.2393 | 1146.5 ± 1.1 | 12.74 ± 1.3
328.15 K, x1 = 0.2655 | 1151.3 ± 1.1 | 18.03 ± 1.8
328.15 K, x1 = 0.2745 | 1152.8 ± 1.2 | 19.71 ± 2
333.15 K, x1 = 0.003 | 989.3 ± 1.1 | –
333.15 K, x1 = 0.0072 | 996.3 ± 1.1 | –
333.15 K, x1 = 0.0119 | 1004.9 ± 1.1 | –
333.15 K, x1 = 0.0427 | 1048.8 ± 1 | 1.034 ± 0.1
333.15 K, x1 = 0.0615 | 1067.6 ± 1 | 1.474 ± 0.15
333.15 K, x1 = 0.0839 | 1085.2 ± 1 | 2.055 ± 0.21
333.15 K, x1 = 0.1192 | 1105.5 ± 1 | 3.014 ± 0.3
333.15 K, x1 = 0.1491 | 1118.4 ± 1 | 4.513 ± 0.45
333.15 K, x1 = 0.2004 | 1132.9 ± 1.1 | 7.033 ± 0.71
333.15 K, x1 = 0.2206 | 1138.7 ± 1.1 | 8.945 ± 0.9
333.15 K, x1 = 0.2393 | 1143 ± 1.1 | 10.47 ± 1.1
333.15 K, x1 = 0.2655 | 1147.7 ± 1.1 | 14.56 ± 1.5
333.15 K, x1 = 0.2745 | 1149.3 ± 1.2 | 15.86 ± 1.6
338.15 K, x1 = 0.003 | 986 ± 1.1 | –
338.15 K, x1 = 0.0072 | 993.1 ± 1.1 | –
338.15 K, x1 = 0.0119 | 1002 ± 1.1 | –
338.15 K, x1 = 0.0427 | 1045.4 ± 1 | 0.886 ± 0.089
338.15 K, x1 = 0.0615 | 1064 ± 1 | 1.3 ± 0.13
338.15 K, x1 = 0.0839 | 1081.4 ± 1 | 1.835 ± 0.18
338.15 K, x1 = 0.1192 | 1101.8 ± 1 | 2.724 ± 0.27
338.15 K, x1 = 0.1491 | 1114.7 ± 1 | 4.032 ± 0.4
338.15 K, x1 = 0.2004 | 1131.2 ± 1.1 | 6.088 ± 0.61
338.15 K, x1 = 0.2206 | 1135.1 ± 1.1 | 7.421 ± 0.74
338.15 K, x1 = 0.2393 | 1139.4 ± 1.1 | 8.696 ± 0.87
338.15 K, x1 = 0.2655 | 1144.2 ± 1.1 | 11.95 ± 1.2
338.15 K, x1 = 0.2745 | 1145.8 ± 1.2 | 12.94 ± 1.3
343.15 K, x1 = 0.003 | 983.6 ± 1.1 | –
343.15 K, x1 = 0.0072 | 990.1 ± 1.1 | –
343.15 K, x1 = 0.0119 | 999 ± 1.1 | –
343.15 K, x1 = 0.0427 | 1041.8 ± 1 | 0.85 ± 0.085
343.15 K, x1 = 0.0615 | 1060.3 ± 1 | 1.142 ± 0.12
343.15 K, x1 = 0.0839 | 1077.7 ± 1 | 1.634 ± 0.16
343.15 K, x1 = 0.1192 | 1098 ± 1 | 2.382 ± 0.24
343.15 K, x1 = 0.1491 | 1110.9 ± 1 | 3.697 ± 0.37
343.15 K, x1 = 0.2004 | 1126.4 ± 1.1 | 5.341 ± 0.54
343.15 K, x1 = 0.2206 | 1131.5 ± 1.1 | 6.243 ± 0.63
343.15 K, x1 = 0.2393 | 1135.9 ± 1.1 | 7.34 ± 0.74
343.15 K, x1 = 0.2655 | 1140.6 ± 1.1 | 9.976 ± 1
343.15 K, x1 = 0.2745 | 1142.3 ± 1.2 | 10.75 ± 1.1
